How the values were obtained:
[1] = target: T1, Adrenergic β2 (H292 cells) (Homo sapiens, UniProt P07550); experiment: Adrenergic β2 Mediated cAMP Production, single concentration 1 μM; assay type: cell-based; conditions: NCI-H292, 1 μM compound, percentage of the maximum response generated by 1E-07M formoterol, read-out: β2 (% effect at 1 μM)
T1 construct: endogenous in cells; host or cells: H292 cells
Summary of the method: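 cAMP was quantified by AlphaScreen in lysates of H292 cells and reported as a percentage of the 1E-07M formoterol maximum. Before lysis the cells, seeded the previous day, received rolipram (300 μM final) and then test compound at a final 1 μM in 1% DMSO for 60 min at room temperature.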

[2] = target: T2, human muscarinic acetylcholine M3 receptor (M3-ACh) (Homo sapiens, UniProt P20309); experiment: Muscarinic 3 Receptor Binding Assay, % inhibition specific binding at 1 μM; conditions: 1 μM compound, % inhibition specific [3H]-NMS binding
T2 construct: expressed in transfected cells; host or cells: CHO-K1 (Chinese Hamster Ovary) cell membranes
T2 sequence (P20309 whole entry): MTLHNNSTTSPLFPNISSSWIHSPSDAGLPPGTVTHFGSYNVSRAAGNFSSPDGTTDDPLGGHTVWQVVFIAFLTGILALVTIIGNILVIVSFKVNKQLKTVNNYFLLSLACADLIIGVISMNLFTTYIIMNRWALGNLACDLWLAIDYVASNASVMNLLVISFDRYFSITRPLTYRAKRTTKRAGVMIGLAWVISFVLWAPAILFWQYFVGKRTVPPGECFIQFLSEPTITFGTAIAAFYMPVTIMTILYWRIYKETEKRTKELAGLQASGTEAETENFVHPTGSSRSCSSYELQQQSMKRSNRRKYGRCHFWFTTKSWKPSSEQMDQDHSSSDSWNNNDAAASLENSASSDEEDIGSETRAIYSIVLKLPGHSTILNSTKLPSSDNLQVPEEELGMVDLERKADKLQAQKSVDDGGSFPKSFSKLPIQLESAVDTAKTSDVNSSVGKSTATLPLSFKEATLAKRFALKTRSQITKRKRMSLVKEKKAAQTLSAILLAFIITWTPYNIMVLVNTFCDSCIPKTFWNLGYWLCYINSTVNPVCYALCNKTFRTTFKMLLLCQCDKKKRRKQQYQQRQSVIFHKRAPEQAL
Summary of the method: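 Value is % inhibition of specific [3H]N-methyl scopolamine binding (0.1 nM, quarter Kd) by 1 μM compound, using SPA beads precoated with human M3-expressing CHO-K1 membranes. Buffer HEPES pH 7.4 with MgCl2 and 1% DMSO; 16 h at room temperature; 1 μM atropine sets non-specific binding.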

T1 sequence (P07550 whole entry): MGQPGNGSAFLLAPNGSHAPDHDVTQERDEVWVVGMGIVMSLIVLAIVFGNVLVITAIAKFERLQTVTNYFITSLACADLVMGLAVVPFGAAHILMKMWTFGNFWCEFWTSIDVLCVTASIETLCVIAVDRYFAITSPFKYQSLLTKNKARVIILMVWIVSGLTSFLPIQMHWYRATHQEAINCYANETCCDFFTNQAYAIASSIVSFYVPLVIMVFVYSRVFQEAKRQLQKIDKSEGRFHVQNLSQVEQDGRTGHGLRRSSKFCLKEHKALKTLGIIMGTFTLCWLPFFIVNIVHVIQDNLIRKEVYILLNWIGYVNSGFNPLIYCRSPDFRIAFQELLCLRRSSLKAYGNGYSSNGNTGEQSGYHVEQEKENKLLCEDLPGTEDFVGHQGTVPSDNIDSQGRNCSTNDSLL

Row | Compound | activation at 1 µM [1] [%] | inhibition at 1 µM [2] [%]
1 | Cc1cccc(C(=O)N2CCOC3(CCN(CCOc4ccc(CNC[C@H](O)c5ccc(O)c6[nH]c(=O)sc56)cc4)CC3)C2)n1 [Example 237, (R)-4-hydroxy-7-(1-hydroxy-2-(4-(2-(4-(6-methylpicolinoyl)-1-oxa-4,9-diazaspiro[5.5]undecan-9-yl)ethoxy)benzylamino)ethyl) benzo[d]thiazol-2(3H)-one] | 62 | 46
2 | Cc1occc1C(=O)N1CCOC2(CCN(CCOc3ccc(CNC[C@H](O)c4ccc(O)c5[nH]c(=O)sc45)cc3)CC2)C1 [Example 238, (R)-4-hydroxy-7-(1-hydroxy-2-(4-(2-(4-(2-methylfuran-3-carbonyl)-1-oxa-4,9-diazaspiro[5.5]undecan-9-yl)ethoxy)benzylamino)ethyl) benzo[d]thiazol-2(3H)-one] | 73 | 57
3 | Cc1ccc(C(=O)N2CCOC3(CCN(CCOc4ccc(CNC[C@H](O)c5ccc(O)c6[nH]c(=O)sc56)cc4)CC3)C2)o1 [Example 239, (R)-4-hydroxy-7-(1-hydroxy-2-(4-(2-(4-(5-methylfuran-2-carbonyl)-1-oxa-4,9-diazaspiro[5.5]undecan-9-yl)ethoxy)benzylamino)ethyl) benzo[d]thiazol-2(3H)-one] | 76 | 90
4 | O=C(COc1ccccc1)N1CCOC2(CCN(CCOc3ccc(CNC[C@H](O)c4ccc(O)c5[nH]c(=O)sc45)cc3)CC2)C1 [Example 240, (R)-4-hydroxy-7-(1-hydroxy-2-(4-(2-(4-(2-phenoxyacetyl)-1-oxa-4,9-diazaspiro[5.5]undecan-9-yl)ethoxy)benzylamino)ethyl) benzo[d]thiazol-2(3H)-one] | 92 | 34
5 | Cc1ccnn1CC(=O)N1CCOC2(CCN(CCOc3ccc(CNC[C@H](O)c4ccc(O)c5[nH]c(=O)sc45)cc3)CC2)C1 [Example 241, (R)-4-hydroxy-7-(1-hydroxy-2-(4-(2-(4-(2-(5-methyl-1H-pyrazol-1-yl)acetyl)-1-oxa-4,9-diazaspiro[5.5]undecan-9-yl)ethoxy)benzylamino)ethyl) benzo[d]thiazol-2(3H)-one] | 85 | 11
6 | Cc1nc(C(=O)N2CCOC3(CCN(CCOc4ccc(CNC[C@H](O)c5ccc(O)c6[nH]c(=O)sc56)cc4)CC3)C2)c(C)s1 [Example 242, (R)-7-(2-(4-(2-(4-(2,5-dimethylthiazole-4-carbonyl)-1-oxa-4,9-diazaspiro[5.5]undecan-9-yl)ethoxy)benzylamino)-1-hydroxyethyl)-4-hydroxy-benzo[d]thiazol-2(3H)-one] | 43 | 83
7 | Cc1cc(C(=O)N2CCOC3(CCN(CCOc4ccc(CNC[C@H](O)c5ccc(O)c6[nH]c(=O)sc56)cc4)CC3)C2)c(C)s1 [Example 243, (R)-7-(2-(4-(2-(4-(2,5-dimethylthiophene-3-carbonyl)-1-oxa-4,9-diazaspiro[5.5]undecan-9-yl)ethoxy)benzylamino)-1-hydroxyethyl)-4-hydroxy-benzo[d]thiazol-2(3H)-one] | 84 | 78
8 | O=C(COCc1ccccc1)N1CCOC2(CCN(CCOc3ccc(CNC[C@H](O)c4ccc(O)c5[nH]c(=O)sc45)cc3)CC2)C1 [Example 244, (R)-7-(2-(4-(2-(4-(2-(benzyloxy)acetyl)-1-oxa-4,9-diazaspiro[5.5]undecan-9-yl)ethoxy)benzylamino)-1-hydroxyethyl)-4-hydroxy-benzo[d]thiazol-2(3H)-one] | 60 | 48
9 | Cc1ccn(CC(=O)N2CCOC3(CCN(CCOc4ccc(CNC[C@H](O)c5ccc(O)c6[nH]c(=O)sc56)cc4)CC3)C2)n1 [Example 245, (R)-4-hydroxy-7-(1-hydroxy-2-(4-(2-(4-(2-(3-methyl-1H-pyrazol-1-yl)acetyl)-1-oxa-4,9-diazaspiro[5.5]undecan-9-yl)ethoxy)benzylamino)ethyl) benzo[d]thiazol-2(3H)-one] | 76 | 51

More lines, now with the values ahead:

Row | activation at 1 µM [1] [%] | inhibition at 1 µM [2] [%] | Compound
10 | 72 | 38 | Cc1sccc1C(=O)N1CCOC2(CCN(CCOc3ccc(CNC[C@H](O)c4ccc(O)c5[nH]c(=O)sc45)cc3)CC2)C1 [Example 246, (R)-4-hydroxy-7-(1-hydroxy-2-(4-(2-(4-(2-methylthiophene-3-carbonyl)-1-oxa-4,9-diazaspiro[5.5]undecan-9-yl)ethoxy)benzylamino)ethyl) benzo[d]thiazol-2(3H)-one]
11 | 75 | 60 | O=C(CCOc1ccccc1)N1CCOC2(CCN(CCOc3ccc(CNC[C@H](O)c4ccc(O)c5[nH]c(=O)sc45)cc3)CC2)C1 [Example 247, (R)-4-hydroxy-7-(1-hydroxy-2-(4-(2-(4-(3-phenoxypropanoyl)-1-oxa-4,9-diazaspiro[5.5]undecan-9-yl)ethoxy)benzylamino)ethyl) benzo[d]thiazol-2(3H)-one]
12 | 70 | 44 | O=C(CCc1cccs1)N1CCOC2(CCN(CCOc3ccc(CNC[C@H](O)c4ccc(O)c5[nH]c(=O)sc45)cc3)CC2)C1 [Example 248, (R)-4-hydroxy-7-(1-hydroxy-2-(4-(2-(4-(3-(thiophen-2-yl)propanoyl)-1-oxa-4,9-diazaspiro[5.5]undecan-9-yl)ethoxy)benzylamino)ethyl) benzo[d]thiazol-2(3H)-one]
13 | 76 | 31 | Cc1cc(CC(=O)N2CCOC3(CCN(CCOc4ccc(CNC[C@H](O)c5ccc(O)c6[nH]c(=O)sc56)cc4)CC3)C2)on1 [Example 249, (R)-4-hydroxy-7-(1-hydroxy-2-(4-(2-(4-(2-(3-methylisoxazol-5-yl)acetyl)-1-oxa-4,9-diazaspiro[5.5]undecan-9-yl)ethoxy)benzylamino)ethyl) benzo[d]thiazol-2(3H)-one]
14 | 77 | 91 | O=C(c1ccc2occc2c1)N1CCOC2(CCN(CCOc3ccc(CNC[C@H](O)c4ccc(O)c5[nH]c(=O)sc45)cc3)CC2)C1 [Example 250, (R)-7-(2-(4-(2-(4-(benzofuran-5-carbonyl)-1-oxa-4,9-diazaspiro[5.5]undecan-9-yl)ethoxy)benzylamino)-1-hydroxyethyl)-4-hydroxybenzo[d]thiazol-2(3H)-one]
15 | 68 | 51 | Cc1nc(CC(=O)N2CCOC3(CCN(CCOc4ccc(CNC[C@H](O)c5ccc(O)c6[nH]c(=O)sc56)cc4)CC3)C2)cs1 [Example 251, (R)-4-hydroxy-7-(1-hydroxy-2-(4-(2-(4-(2-(2-methylthiazol-4-yl)acetyl)-1-oxa-4,9-diazaspiro[5.5]undecan-9-yl)ethoxy)benzylamino)ethyl) benzo[d]thiazol-2(3H)-one]
16 | 88 | 10 | Cc1nc(C)c(CC(=O)N2CCOC3(CCN(CCOc4ccc(CNC[C@H](O)c5ccc(O)c6[nH]c(=O)sc56)cc4)CC3)C2)s1 [Example 252, (R)-7-(2-(4-(2-(4-(2-(2,4-dimethylthiazol-5-yl)acetyl)-1-oxa-4,9-diazaspiro[5.5]undecan-9-yl)ethoxy)benzylamino)-1-hydroxyethyl)-4-hydroxy-benzo[d]thiazol-2(3H)-one]
17 | 73 | 35 | O=C(c1ccsc1Cl)N1CCOC2(CCN(CCOc3ccc(CNC[C@H](O)c4ccc(O)c5[nH]c(=O)sc45)cc3)CC2)C1 [Example 253, (R)-7-(2-(4-(2-(4-(2-chlorothiophene-3-carbonyl)-1-oxa-4,9-diazaspiro[5.5]undecan-9-yl)ethoxy)benzylamino)-1-hydroxyethyl)-4-hydroxy-benzo[d]thiazol-2(3H)-one]
18 | 71 | 92 | Cc1csc(C(=O)N2CCOC3(CCN(CCOc4ccc(CNC[C@H](O)c5ccc(O)c6[nH]c(=O)sc56)cc4)CC3)C2)c1 [Example 254, (R)-4-hydroxy-7-(1-hydroxy-2-(4-(2-(4-(4-methylthiophene-2-carbonyl)-1-oxa-4,9-diazaspiro[5.5]undecan-9-yl)ethoxy)benzylamino)ethyl) benzo[d]thiazol-2(3H)-one]
19 | 66 | 32 | CC(C)c1cc(C(=O)N2CCOC3(CCN(CCOc4ccc(CNC[C@H](O)c5ccc(O)c6[nH]c(=O)sc56)cc4)CC3)C2)no1 [Example 255, (R)-4-hydroxy-7-(1-hydroxy-2-(4-(2-(4-(5-isopropylisoxazole-3-carbonyl)-1-oxa-4,9-diazaspiro[5.5]undecan-9-yl)ethoxy)benzylamino)ethyl) benzo[d]thiazol-2(3H)-one]
20 | 76 | 38 | Cc1nc2cc(C(=O)N3CCOC4(CCN(CCOc5ccc(CNC[C@H](O)c6ccc(O)c7[nH]c(=O)sc67)cc5)CC4)C3)ccc2s1 [Example 256, (R)-4-hydroxy-7-(1-hydroxy-2-(4-(2-(4-(2-methylbenzo[d]thiazole-5-carbonyl)-1-oxa-4,9-diazaspiro[5.5]undecan-9-yl)ethoxy)benzylamino)ethyl) benzo[d]thiazol-2(3H)-one]
21 | 56 | 36 | CC(C)(C)c1nc(C(=O)N2CCOC3(CCN(CCOc4ccc(CNC[C@H](O)c5ccc(O)c6[nH]c(=O)sc56)cc4)CC3)C2)cs1 [Example 257, (R)-7-(2-(4-(2-(4-(2-tert-butylthiazole-4-carbonyl)-1-oxa-4,9-diazaspiro[5.5]undecan-9-yl)ethoxy)benzylamino)-1-hydroxyethyl)-4-hydroxy-benzo[d]thiazol-2(3H)-one]
